From patent US20110009435A1, “HETERO BICYCLIC CARBOXAMIDE DERIVATIVES AND THEIR PHARMACEUTICAL USE AND COMPOSITIONS” (Pfizer, Inc., priority 2007, published 2011)

What was measured:
Assay type in all cases: biochemical
Human recombinant MMP-7 = biological target: T1, Human recombinant MMP-7 (Homo sapiens, UniProt P09237); assay: In vitro MMP inhibition assay, MMP-7 (fluorogenic peptide substrate cleavage, Ki); settings: human MMP-7 (CD); read-out: hMMP Ki 07/CD
T1 construct: 07/CD; made in house
T1 sequence (P09237 95-267): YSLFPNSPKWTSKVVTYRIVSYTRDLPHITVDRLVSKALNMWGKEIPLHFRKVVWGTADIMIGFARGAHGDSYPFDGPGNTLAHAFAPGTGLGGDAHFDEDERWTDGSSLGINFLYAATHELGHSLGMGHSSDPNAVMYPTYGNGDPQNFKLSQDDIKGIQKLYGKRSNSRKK
Description: (§1) Matrix Metalloproteinase inhibitor compounds were analyzed in in vitro MMP Inhibition assays to determine their ability to inhibit the MMP cleavage of peptide substrates. Inhibition constants (Ki) were calculated from the assayed compound-MMP interactions.
(§2) Human recombinant MMP-1, MMP-2, MMP-3, MMP-7, MMP-9, MMP-12, MMP-13, MMP-14 and MMP-15 were used in these assays. The enzymes are prepared following known laboratory procedures. Protocols for the preparation and use of these enzymes are available in the scientific literature. See, e.g., Enzyme Nomenclature (Academic Press, San Diego, Calif., 1992) and the citations therein. See also Frije et al., J. Biol. Chem., 26(24), 16766-73 (1994).
The MMP-7 cDNA may be used to express the enzyme in E. coli inclusion bodies. Then the enzyme is solubilized in urea, purified on a preparative […] reverse phase HPLC column, and refolded in the presence of zinc acetate and purified for use. […]
The inhibitors are analyzed using a single low enzyme concentration with a single substrate concentration fixed at or below the Km. […] Apparent inhibitory constants are determined by non-linear regression of reaction velocity as a function of inhibitor and enzyme concentration using Morrison's equation, as described by Kuzmic, Anal. Biochem. 286, 45-50 (2000). […]

[1] = biological target: T2, catalytic domain of human recombinant MMP-3 (Homo sapiens, UniProt P08254); assay: In vitro MMP inhibition assay, MMP-3 catalytic domain (fluorogenic peptide substrate cleavage, Ki); settings: human MMP-3, catalytic domain (CD); read-out: hMMP Ki 03/CD
T2 construct: made in house
T2 sequence (P08254 100-272 limits assumed): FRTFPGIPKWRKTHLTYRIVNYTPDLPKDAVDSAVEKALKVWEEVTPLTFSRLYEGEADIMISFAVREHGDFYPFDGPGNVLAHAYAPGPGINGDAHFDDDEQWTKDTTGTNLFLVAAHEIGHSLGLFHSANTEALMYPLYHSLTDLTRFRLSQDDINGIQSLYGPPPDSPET
Procedure, shortened: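 The MMP-3 catalytic domain was expressed in E. coli and refolded with zinc. It was preincubated with inhibitor for 1 hr at room temperature in MES buffer pH 6.0 with 1% DMSO, then 4 μM Mca/Dnp fluorogenic peptide was added (ex 330/em 420 nm). Ki came from Morrison-equation fits of rates, with substrate at or below Km and no substrate correction.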

Human recombinant MMP-14 = biological target: T3, Human recombinant MMP-14 (Homo sapiens, UniProt P50281); assay: In vitro MMP inhibition assay, MMP-14 catalytic domain (fluorogenic peptide substrate cleavage, Ki); settings: human MMP-14, catalytic domain (CD); read-out: hMMP Ki 14/CD
T3 construct: The MMP-14 cDNA may be used to express the catalytic domain enzyme in E. coli inclusion bodies; made in house
Description: as §1, §2
The MMP-14 cDNA may be used to express the catalytic domain enzyme in E. coli inclusion bodies. Then the enzyme is solubilized in urea, purified on a preparative […] reverse phase HPLC column, and refolded in the presence of zinc acetate and purified for use.
The fluorogenic, methoxycoumarin-containing polypeptide substrate MCA-ArgProLeuGlyLeuDpaAlaArgGluArgNH2 was used as the MMP substrate in the MMP inhibition assays for human recombinant MMP-1, MMP-2, MMP-7, MMP-9, MMP-12, MMP-13, MMP-14 and MMP-15. Here, “MCA” is 7-methoxycoumarin-4-yl acetyl and “Dpa” is 3-(2,4-dinitrophenyl)-L-2,3-di-aminopropionyl group. In the absence of MMP inhibitory activity, the substrate is cleaved at the Gly-Leu peptide bond. The cleavage separates the highly fluorogenic peptide from the 2,4-dinitrophenyl quencher, resulting in an increase of fluorescent intensity.
For the human MMP-1, MMP-2, MMP-7, MMP-9, MMP-12, MMP-13, MMP-14 and MMP-15 assays, dilutions of the inhibitors (or salts thereof) were prepared in 100% dimethyl sulfoxide (DMSO). The stock solutions were diluted in Buffer A (100 mM Tris-HCl, 100 mM NaCl, 10 mM CaCl2, 0.005% polyoxyethylene 23 lauryl ether, pH 7.5) to obtain solutions with different compound concentrations, i.e., assay solutions with different concentrations of the assayed MMP inhibitory compound in 1% DMSO. The experiment controls contained the same amount of Buffer A/DMSO as the assayed sample, but contained no inhibitor.
To determine Ki, the inhibitor samples are incubated at room temperature for 1 hr in the presence of enzyme and then 4 μM of appropriate MMP substrate was added, and samples were analyzed on a Tecan SpectraFlour Plus plate reader. The excitation wavelength is 330 nm, and the emission (fluorescence) wavelength is 420 nm. In the absence of MMP inhibitory activity, the substrate is cleaved at the Gly-Leu bond resulting in an increase of relative fluorescence. Inhibition is observed as a reduced rate of increase in relative fluorescence.
The inhibitors are analyzed using a single low enzyme concentration with a single substrate concentration fixed at or below the Km. This protocol is a modification of method by Knight et al., FEBS Lett., 296(3), 263-266 (1992). Apparent inhibitory constants are determined by non-linear regression of reaction velocity as a function of inhibitor and enzyme concentration using Morrison's equation, as described by Kuzmic, Anal. Biochem. 286, 45-50 (2000). Modifications were made in the non-linear regression method to allow a common control reaction rate and effective enzyme concentration to be shared between all dose-response relationships on a given assay plate. […]

With `COc1cccc(CNC(=O)c2nc3ccc(F)c(OCCC4CCN(C(=O)CO)CC4)c3c(=O)[nH]2)c1` [Example 34, 6-fluoro-5-[2-(1-glycoloylpiperidin-4-yl)ethoxy]-N-(3-methoxybenzyl)-4-oxo-3,4-dihydroquinazoline-2-carboxamide] the Ki (Human recombinant MMP-7) was > 10 µM, the Ki [1] was 1.57 µM and the Ki (Human recombinant MMP-14) was > 10 µM.
